What was measured:
[1] = metabolite profiling in pooled feces (radioprofiling, LC‐MS); format: in vivo, human; conditions: pooled feces
Description: Total radioactivity concentrations of [^14C]‐pamiparib in whole blood, plasma, urine, and feces were determined by liquid scintillation counting (LSC). Radioactivity in each sample was measured for 5 minutes using a Packard Tri‐Carb liquid scintillation counter model 2100TR, 2900TR, or 3100TR (Canberra Packard, Pangbourne, Berks, Australia) with the facilities for computing quench‐corrected disintegrations per minute. Metabolite identification in plasma, urine, and feces was conducted by LC‐MS. Quantitation of the metabolites present in plasma, urine, and feces was based on the profiles of radioactivity. The limit of quantitation for radioactivity in plasma, urine, and feces was set at 1% of each chromatographic analysis (run) and 10 counts per minute (cpm) peak height; therefore, radioactive peaks that were <1% of the total run or <10 cpm peak height were reported as not detected. In addition, pamiparib and standards were reported, regardless of the percentage of run or peak height.
Portions of fecal homogenates (about 200‐500 mg) were subjected to combustion analysis prior to LSC. For metabolite profiling, feces samples collected 0‐24, 24‐48, 48‐72, 72‐96, and 96‐120 hours postdose were pooled by individual patient to generate 0‐ to 120‐hour pooled samples including 0.5% of each sample by weight. Feces were pooled per patient (if required) according to the appropriate 24‐hour collection period. The samples were homogenized in deionized water, avoiding excessive dilution (data on file). The radioactivity in each pooled sample was determined by LSC. The total amount of feces collected was factored into the recovery calculation. Approximately 1.6 to 2.7 g of each pooled feces sample was extracted twice with 6 mL of 0.1% formic acid in ACN. […] The combined supernatants were evaporated to dryness under nitrogen and reconstituted in 300 μL of MeOH. […] The reconstituted samples were analyzed by LC‐MS, with eluent fractions collected, and radiochemical profiles were generated based on radioactivity counts. […]

[2] = unchanged pamiparib in urine and renal clearance (LC‐MS/MS); format: in vivo, human
Description: Total radioactivity was analyzed at Covance Laboratories (Harrogate, North Yorkshire, UK), and metabolite profiling was conducted at Covance Laboratories (Madison, Wisconsin). Determination of pamiparib concentrations in plasma and total radioactivity in plasma and whole blood was performed predose and 0.25, 0.5, 1, 1.5, 2, 2.5, 3, 6, 12, 24, 48, 72, 96, 120, and 144 hours postdose. Pamiparib concentrations in plasma and urine were determined at Covance Laboratories (Salt Lake City, Utah) with validated liquid chromatography‐tandem mass spectrometry (LC‐MS/MS) methods.
An aliquot of human plasma (25 μL) containing dipotassium ethylenediaminetetraacetic acid as anticoagulant or urine (25 μL) was added with the internal standard (20.0 μL of 400 ng/mL BGB‐326) in water:ACN (50:50 v/v) followed by the addition of water:ACN (50:50 v/v, 20.0 μL). […]
Standard PK parameters of pamiparib in plasma as well as total radioactivity in blood and plasma were calculated with noncompartmental methods with Phoenix WinNonlin (version 8.1). Area under the concentration‐time curve (AUC) from time 0 to infinity (AUC0‐∞), AUC from time 0 to last quantifiable concentration (AUC0‐t), Cmax, time postdose at Cmax (tmax), t1/2, and apparent total clearance (CL/F) were calculated. Renal clearance (CLR) was calculated as Ae/AUC, where Ae was the amount of drug excreted in urine.

PARP activity = system: PARP activity; parameters: method as in PMID 33264017; conditions: read-out: inhibition of PARP activity in cellular PARylation assay, IC50; cited from earlier work
[3] = system: Chinese hamster ovary cells; parameters: method as in data on file; conditions: in vitro chromosomal aberration assay, CHO cells; ref data on file; cited from earlier work
[4] = system: BRCA1 mutant mouse xenograft; conditions: BRCA1 mutant mouse xenograft model; cited from earlier work
[5] = parameters: method as in PMID 32652442; conditions: after oral administration in mice; cited from earlier work
PARP1 = system: PARP1; parameters: method as in PMID 33264017; conditions: read-out: PARP1 inhibition IC50; cited from earlier work

For `C[C@]12CCCN1CC1=NNC(=O)c3cc(F)cc4[nH]c2c1c34` [Pamiparib], the “dose quantified in feces” value [1] was 17.5 % of the dose, the “cumulative percent of pamiparib excreted unchanged in urine, geometric mean” value ([2]; LC‐MS/MS, over the 192‐hour study) was “≈ 1.7 % of the administered dose” and the CL renal ([2]; human, urine and plasma, oral, 60 mg, calculated as Ae/AUC, read-out: renal clearance, geometric mean (converted)) was 0.623 mL/min. The IC50 (PARP activity) was 0.2 nM, the clastogenic activity [3] was “clastogenic activity” and the antitumor activity [4] was “strong antitumor activity”. The “potency compared with olaparib” value [4] was “more potent than olaparib”, the brain penetrance [5] was “brain penetrance” and the IC50 (PARP1) was 1.3 nM.
